{"source": "ChEMBL document CHEMBL3877316", "about": "“Synthesis of pharmacologically important naphthoquinones and anticancer activity of 2-benzyllawsone through DNA topoisomerase-II inhibition” (Bioorg Med Chem, 2017)", "key": {"[1]": {"assay": "Antiproliferative activity against human FADU cells after 48 hrs by SRB assay", "assay_type": "functional, cell-based"}, "Mus musculus [2]": {"test_system": "Mus musculus", "assay": "Acute toxicity in Swiss albino mouse assessed as serum SGOT level at 50 mg/kg, po qd administered as single dose for 7 days (reference value: 34.32 +/- 3.78 U/L)", "assay_type": "organism-based", "details": "in vivo, 168 h"}, "[3]": {"assay": "Antiproliferative activity against HEK293 cells after 48 hrs by SRB assay", "assay_type": "cell-based", "details": "Homo sapiens, HEK293, 48 h"}, "[4]": {"assay": "Cell cycle arrest in human FADU cells assessed as accumulation at S phase at 2.5 to 10 uM by propidium iodide staining based flow cytometry", "assay_type": "functional"}, "Mus musculus [5]": {"test_system": "Mus musculus", "assay": "Acute toxicity in Swiss albino mouse assessed as changes in gait up to 1000 mg/kg, po qd administered as single dose for 7 days", "assay_type": "organism-based", "details": "in vivo, 168 h"}, "Mus musculus [6]": {"test_system": "Mus musculus", "assay": "Acute toxicity in Swiss albino mouse assessed as changes in posture up to 1000 mg/kg, po qd administered as single dose for 7 days", "assay_type": "organism-based", "details": "in vivo, 168 h"}, "Mus musculus [7]": {"test_system": "Mus musculus", "assay": "Acute toxicity in Swiss albino mouse assessed as changes in response of mouse up to 1000 mg/kg, po qd administered as single dose for 7 days", "assay_type": "organism-based", "details": "in vivo, 168 h"}, "Mus musculus [8]": {"test_system": "Mus musculus", "assay": "Acute toxicity in Swiss albino mouse assessed as changes in absolute weight of lungs up to 1000 mg/kg, po qd administered as single dose for 7 days", "assay_type": "organism-based", "details": "in vivo, 168 h"}, "Mus musculus [9]": {"test_system": "Mus musculus", "assay": "Acute toxicity in Swiss albino mouse assessed as changes in relative weight of kidney up to 1000 mg/kg, po qd administered as single dose for 7 days", "assay_type": "organism-based", "details": "in vivo, 168 h"}, "Mus musculus [10]": {"test_system": "Mus musculus", "assay": "Acute toxicity in Swiss albino mouse assessed as changes in absolute weight of spleen up to 1000 mg/kg, po qd administered as single dose for 7 days", "assay_type": "organism-based", "details": "in vivo, 168 h"}, "Mus musculus [11]": {"test_system": "Mus musculus", "assay": "Acute toxicity in Swiss albino mouse assessed as changes in absolute weight of heart up to 1000 mg/kg, po qd administered as single dose for 7 days", "assay_type": "organism-based", "details": "in vivo, 168 h"}, "Mus musculus [12]": {"test_system": "Mus musculus", "assay": "Acute toxicity in Swiss albino mouse assessed as body weight at 5 mg/kg, po qd administered as single dose for 7 days (reference value: 27.73 +/- 0.94 g)", "assay_type": "organism-based", "details": "in vivo, 168 h"}, "Mus musculus [13]": {"test_system": "Mus musculus", "assay": "Acute toxicity in Swiss albino mouse assessed as body weight at 50 mg/kg, po qd administered as single dose for 7 days (reference value: 27.73 +/- 0.94 g)", "assay_type": "organism-based", "details": "in vivo, 168 h"}, "Mus musculus [14]": {"test_system": "Mus musculus", "assay": "Acute toxicity in Swiss albino mouse assessed as serum haemoglobin level at 50 mg/kg, po qd administered as single dose for 7 days (reference value: 13.29 +/- 0.46 g/dl)", "assay_type": "organism-based", "details": "in vivo, 168 h"}, "Mus musculus [15]": {"test_system": "Mus musculus", "assay": "Acute toxicity in Swiss albino mouse assessed as serum haemoglobin level at 300 mg/kg, po qd administered as single dose for 7 days (reference value: 13.29 +/- 0.46 g/dl)", "assay_type": "organism-based", "details": "in vivo, 168 h"}, "Mus musculus [16]": {"test_system": "Mus musculus", "assay": "Acute toxicity in Swiss albino mouse assessed as serum RBC level at 50 mg/kg, po qd administered as single dose for 7 days (reference value: 9.07 +/- 1.13 million/mm3)", "assay_type": "organism-based", "details": "in vivo, 168 h"}, "Mus musculus [17]": {"test_system": "Mus musculus", "assay": "Acute toxicity in Swiss albino mouse assessed as serum RBC level at 1000 mg/kg, po qd administered as single dose for 7 days (reference value: 9.07 +/- 1.13 million/mm3)", "assay_type": "organism-based", "details": "in vivo, 168 h"}, "Mus musculus [18]": {"test_system": "Mus musculus", "assay": "Acute toxicity in Swiss albino mouse assessed as serum WBC level at 1000 mg/kg, po qd administered as single dose for 7 days (reference value: 8.64 +/- 0.42 10^3/mm3)", "assay_type": "organism-based", "details": "in vivo, 168 h"}, "Mus musculus [19]": {"test_system": "Mus musculus", "assay": "Acute toxicity in Swiss albino mouse assessed as serum ALP level at 50 mg/kg, po qd administered as single dose for 7 days (reference value: 292.13 +/- 40.29 U/L)", "assay_type": "organism-based", "details": "in vivo, 168 h"}, "Mus musculus [20]": {"test_system": "Mus musculus", "assay": "Acute toxicity in Swiss albino mouse assessed as serum SGOT level at 300 mg/kg, po qd administered as single dose for 7 days (reference value: 34.32 +/- 3.78 U/L)", "assay_type": "organism-based", "details": "in vivo, 168 h"}, "Mus musculus [21]": {"test_system": "Mus musculus", "assay": "Acute toxicity in Swiss albino mouse assessed as serum SGOT level at 1000 mg/kg, po qd administered as single dose for 7 days (reference value: 34.32 +/- 3.78 U/L)", "assay_type": "organism-based", "details": "in vivo, 168 h"}, "Mus musculus [22]": {"test_system": "Mus musculus", "assay": "Acute toxicity in Swiss albino mouse assessed as serum SGPT level at 50 mg/kg, po qd administered as single dose for 7 days (reference value: 23.06 +/- 1.92 U/L)", "assay_type": "organism-based", "details": "in vivo, 168 h"}, "Mus musculus [23]": {"test_system": "Mus musculus", "assay": "Acute toxicity in Swiss albino mouse assessed as serum SGPT level at 300 mg/kg, po qd administered as single dose for 7 days (reference value: 23.06 +/- 1.92 U/L)", "assay_type": "organism-based", "details": "in vivo, 168 h"}, "Mus musculus [24]": {"test_system": "Mus musculus", "assay": "Acute toxicity in Swiss albino mouse assessed as serum albumin level at 50 mg/kg, po qd administered as single dose for 7 days (reference value: 2.49 +/- 0.17 g/dl)", "assay_type": "organism-based", "details": "in vivo, 168 h"}, "Mus musculus [25]": {"test_system": "Mus musculus", "assay": "Acute toxicity in Swiss albino mouse assessed as serum albumin level at 300 mg/kg, po qd administered as single dose for 7 days (reference value: 2.49 +/- 0.17 g/dl)", "assay_type": "organism-based", "details": "in vivo, 168 h"}, "Mus musculus [26]": {"test_system": "Mus musculus", "assay": "Acute toxicity in Swiss albino mouse assessed as serum creatinine level at 50 mg/kg, po qd administered as single dose for 7 days (reference value: 0.09 +/- 0.01 mg/dl)", "assay_type": "organism-based", "details": "in vivo, 168 h"}, "Mus musculus [27]": {"test_system": "Mus musculus", "assay": "Acute toxicity in Swiss albino mouse assessed as serum creatinine level at 300 mg/kg, po qd administered as single dose for 7 days (reference value: 0.09 +/- 0.01 mg/dl)", "assay_type": "organism-based", "details": "in vivo, 168 h"}, "Mus musculus [28]": {"test_system": "Mus musculus", "assay": "Acute toxicity in Swiss albino mouse assessed as serum triglycerides level at 300 mg/kg, po qd administered as single dose for 7 days (reference value: 107.9 +/- 10.7 mg/dl)", "assay_type": "organism-based", "details": "in vivo, 168 h"}, "Mus musculus [29]": {"test_system": "Mus musculus", "assay": "Acute toxicity in Swiss albino mouse assessed as serum triglycerides level at 1000 mg/kg, po qd administered as single dose for 7 days (reference value: 107.9 +/- 10.7 mg/dl)", "assay_type": "organism-based", "details": "in vivo, 168 h"}, "Mus musculus [30]": {"test_system": "Mus musculus", "assay": "Acute toxicity in Swiss albino mouse assessed as serum protein level at 5 mg/kg, po qd administered as single dose for 7 days (reference value: 2.91 +/- 0.31 mg/ml)", "assay_type": "organism-based", "details": "in vivo, 168 h"}, "Mus musculus [31]": {"test_system": "Mus musculus", "assay": "Acute toxicity in Swiss albino mouse assessed as serum protein level at 1000 mg/kg, po qd administered as single dose for 7 days (reference value: 2.91 +/- 0.31 mg/ml)", "assay_type": "organism-based", "details": "in vivo, 168 h"}, "Mus musculus [32]": {"test_system": "Mus musculus", "assay": "Acute toxicity in Swiss albino mouse assessed as serum cholesterol level at 50 mg/kg, po qd administered as single dose for 7 days (reference value: 68.37 +/- 4.42 mg/dl)", "assay_type": "organism-based", "details": "in vivo, 168 h"}, "Mus musculus [33]": {"test_system": "Mus musculus", "assay": "Acute toxicity in Swiss albino mouse assessed as serum cholesterol level at 300 mg/kg, po qd administered as single dose for 7 days (reference value: 68.37 +/- 4.42 mg/dl)", "assay_type": "organism-based", "details": "in vivo, 168 h"}, "Mus musculus [34]": {"test_system": "Mus musculus", "assay": "Acute toxicity in Swiss albino mouse assessed as serum cholesterol level at 1000 mg/kg, po qd administered as single dose for 7 days (reference value: 68.37 +/- 4.42 mg/dl)", "assay_type": "organism-based", "details": "in vivo, 168 h"}, "Mus musculus [35]": {"test_system": "Mus musculus", "assay": "Acute toxicity in Swiss albino mouse assessed as effect on eosinophil count up to 1000 mg/kg, po qd administered as single dose for 7 days", "assay_type": "organism-based", "details": "in vivo, 168 h"}}, "note": "Calls of active or inactive are those of the source. No cut-off for these calls is given here.", "data": [{"smiles": "O=C1C=C(OCc2ccccc2)C(=O)c2ccccc21", "values": [{"measurement": "IC50", "setting": "[1]", "value": 5.27, "unit": "µM"}, {"measurement": "Activity", "setting": "Mus musculus [2]", "value": 30.19, "unit": "U/L"}, {"measurement": "IC50", "setting": "[3]", "value": "> 150", "unit": "µM"}, {"measurement": "Activity", "setting": "[4]", "value": "Active"}, {"measurement": "Activity", "setting": "Mus musculus [5]", "value": "Non-Toxic"}, {"measurement": "Activity", "setting": "Mus musculus [6]", "value": "Non-Toxic"}, {"measurement": "Activity", "setting": "Mus musculus [7]", "value": "Non-Toxic"}, {"measurement": "Activity", "setting": "Mus musculus [8]", "value": "Non-Toxic"}, {"measurement": "Activity", "setting": "Mus musculus [9]", "value": "Non-Toxic"}, {"measurement": "Activity", "setting": "Mus musculus [10]", "value": "Non-Toxic"}, {"measurement": "Activity", "setting": "Mus musculus [11]", "value": "Non-Toxic"}, {"measurement": "Activity", "setting": "Mus musculus [12]", "value": 26.34, "unit": "g"}, {"measurement": "Activity", "setting": "Mus musculus [13]", "value": 26.76, "unit": "g"}, {"measurement": "Activity", "setting": "Mus musculus [14]", "value": 13.26, "unit": "g/dL"}, {"measurement": "Activity", "setting": "Mus musculus [15]", "value": 13.42, "unit": "g/dL"}, {"measurement": "Activity", "setting": "Mus musculus [16]", "value": 8.54, "unit": "million/mm3"}, {"measurement": "Activity", "setting": "Mus musculus [17]", "value": 8.89, "unit": "million/mm3"}, {"measurement": "Activity", "setting": "Mus musculus [18]", "value": 8.7, "unit": "×10³ /mm3"}, {"measurement": "Activity", "setting": "Mus musculus [19]", "value": 304.24, "unit": "U/L"}, {"measurement": "Activity", "setting": "Mus musculus [20]", "value": 33.87, "unit": "U/L"}, {"measurement": "Activity", "setting": "Mus musculus [21]", "value": 31.68, "unit": "U/L"}, {"measurement": "Activity", "setting": "Mus musculus [22]", "value": 18.02, "unit": "U/L"}, {"measurement": "Activity", "setting": "Mus musculus [23]", "value": 20.48, "unit": "U/L"}, {"measurement": "Activity", "setting": "Mus musculus [24]", "value": 2.7, "unit": "g/dL"}, {"measurement": "Activity", "setting": "Mus musculus [25]", "value": 2.92, "unit": "g/dL"}, {"measurement": "Activity", "setting": "Mus musculus [26]", "value": 0.16, "unit": "mg/dL"}, {"measurement": "Activity", "setting": "Mus musculus [27]", "value": 0.13, "unit": "mg/dL"}, {"measurement": "Activity", "setting": "Mus musculus [28]", "value": 119.3, "unit": "mg/dL"}, {"measurement": "Activity", "setting": "Mus musculus [29]", "value": 127.4, "unit": "mg/dL"}, {"measurement": "Activity", "setting": "Mus musculus [30]", "value": 2.55, "unit": "mg/mL"}, {"measurement": "Activity", "setting": "Mus musculus [31]", "value": 2.95, "unit": "mg/mL"}, {"measurement": "Activity", "setting": "Mus musculus [32]", "value": 65.13, "unit": "mg/dL"}, {"measurement": "Activity", "setting": "Mus musculus [33]", "value": 45.62, "unit": "mg/dL"}, {"measurement": "Activity", "setting": "Mus musculus [34]", "value": 51.05, "unit": "mg/dL"}, {"measurement": "Activity", "setting": "Mus musculus [35]", "value": "Non-Toxic"}]}]}
